# From patent publication US10857246B2, “Nuclear imaging and radiotherapeutics agents targeting carbonic anhydrase IX and uses thereof” (THE JOHNS HOPKINS UNIVERSITY, priority 2015, dated 2020)
# Entries after “also recorded” stand apart in the source; their conditions may differ.
# Key:
# SK-RC-52 xenografts = assay: Radio-therapy of mice bearing SK-RC-52 xenografts; type: in vivo; conditions: 11.1 MBq and 18.5 MBq i.v., n=4
# CAIX = target: T1, CAIX (Homo sapiens, UniProt Q16790); assay: CAIX specific uptake in vitro; type: cell-based
# T1 construct: host or cells: ccRCC tumours in patients
# [1] = test system: CAIX-expressing SK-RC-52 tumors; assay: Biodistribution in mice bearing SK-RC-52 xenografts; type: in vivo; conditions: 740 kBq i.v.
# Description: Animal experiments were performed in accordance with protocols approved by the Johns Hopkins Animal Care and Use Committee (ACUC). Six-week-old female NOD/SCID mice were purchased from the Animal Resource Core of the Sidney Kimmel Comprehensive Cancer Center of Johns Hopkins and were subcutaneously injected in the lower left flank or upper right flank with 1×10^6 SK-RC-52 cells in RPMI 1640 GlutaMAX™ media (Life Technologies, Frederick, Md.) supplemented with 1% fetal bovine serum (FBS). Mice were monitored for tumor size and used for SPECT/CT imaging when the size of the tumor reached 100 mm^3.
# Mice bearing SK-RC-52 xenografts at lower left flank were injected intravenously with 740 kBq (20 μCi) of [^111In]XYIMSR-01, or [^177Lu]XYIMSR-01 in 200 μL of PBS. For competitive blocking, same tumor bearing mice were injected with 740 kBq (20 μCi) of [^111In]XYIMSR-01 and 200 nmole of 8 in 200 μL of PBS. At 1 h, 4 h, 8 h, 24 h and 48 h post-injection, mice were sacrificed by cervical dislocation and the blood was immediately collected by cardiac puncture. Heart, lungs, pancreas, spleen, fat, brain, muscle, small intestines, liver, stomach, kidney, urinary bladder, and tumor were collected. Each organ was weighed and the tissue radioactivity was measured with an automated gamma counter (1282 Compugamma CS, Pharmacia/LKBNuclear, Inc., Mt. Waverly, Vic. Australia). The percentage of injected dose per gram of tissue (% ID/g) was calculated by comparison with samples of a standard dilution of the initial dose. All measurements were corrected for radioactive decay.
# Data were expressed as mean±standard deviation (SD). Prism software (GraphPAD, San Diego, Calif.) was used to determine statistical significance. Statistical significance was calculated using a paired t test. P-values <0.0001 were considered significant.
# Mice bearing SK-RC-52 xenografts within the lower left flank were injected intravenously with 740 kBq (20 μCi) of [Al^18F]XYIMSR-04 in 200 μL of PBS. At specific 1 hour time point mentioned in the paper, mice (n=5) were sacrificed by cervical dislocation and the blood was immediately collected by cardiac puncture. Heart, lungs, pancreas, spleen, fat, brain, muscle, small intestines, liver, bone, stomach, kidney, urinary bladder, and tumor were collected. Each organ was weighed and the tissue radioactivity was measured with an automated gamma counter (1282 Compugamma CS, Pharmacia/LKBNuclear, Inc., Mt. Waverly, Vic. Australia). The percentage of injected dose per gram of tissue (% ID/g) was calculated by comparison with samples of a standard dilution of the initial dose. All measurements were corrected for radioactive decay. Data were expressed as mean±standard deviation (SD). Prism software (GraphPAD, San Diego, Calif.) was used to determine statistical significance. Statistical significance was calculated using a paired t test. P-values <0.0001 were considered significant.
# Mice bearing SK-RC-52 xenografts within the upper right flank were injected intravenously with 740 kBq (20 μCi) of [^64Cu]XYIMSR-06 in 200 μL of PBS. For in vivo competition (binding specificity) studies, tumor-bearing mice were injected with 740 kBq (20 μCi) of [^64Cu]XYIMSR-06 and 200 nmole of 8 in 200 μL of PBS concurrently. At specific times after injection (1 h, 4 h, 8 h and 24 h), mice (n=5) were sacrificed by cervical dislocation with blood immediately collected by cardiac puncture. Heart, lungs, pancreas, spleen, fat, brain, muscle, small intestines, liver, stomach, kidney, urinary bladder, and tumor were also collected. Each organ was weighed and the tissue radioactivity was measured with an automated gamma counter (1282 Compugamma CS, Pharmacia/LKBNuclear, Inc., Mt. Waverly, Vic. Australia). The percentage of injected dose per gram of tissue (% ID/g) was calculated by comparison with samples of a standard dilution of the initial dose. All measurements were corrected for radioactive decay. Data were expressed as mean±standard deviation (SD). […]
smiles,measurement,setting,value
CC(CCC(=O)N[C@@H](CC(=O)N[C@@H](CC(=O)N[C@@H](CCCCn1cc(CCCC(=O)Nc2nnc(S(N)(=O)=O)s2)nn1)C(=O)NCCOCCOCCNC(=O)CN1CCN(CC(=O)[O-])CCN(CC(=O)[O-])CCN(CC(=O)[O-])CC1)C(=O)O)C(=O)O)(c1ccc(O)cc1)c1ccc(O)cc1.[177Lu+3] [[^177Lu]XYIMSR-01],Tumor growth compared with control non-treated mice,SK-RC-52 xenografts,Delays in tumor growth; also recorded: significant therapeutic effect in controlling tumor growth
same,Uptake in vitro,CAIX,CAIX specific uptake
same,Biodistribution Bladder,[1]; 1 h post-injection,26.55 % ID/g
same,Biodistribution Blood,[1]; 1 h post-injection,0.55 % ID/g
same,Biodistribution Brain,[1]; 1 h post-injection,0.49 % ID/g
same,Biodistribution Fat,[1]; 1 h post-injection,1.07 % ID/g
same,Biodistribution Heart,[1]; 1 h post-injection,3.59 % ID/g
same,Biodistribution Kidney,[1]; 1 h post-injection,40.77 % ID/g
same,Biodistribution Liver,[1]; 1 h post-injection,4.15 % ID/g
same,Biodistribution Lung,[1]; 1 h post-injection,23.72 % ID/g
same,Biodistribution Muscle,[1]; 1 h post-injection,1.42 % ID/g
same,Biodistribution Pancreas,[1]; 1 h post-injection,2.03 % ID/g
same,Biodistribution Small intestine,[1]; 1 h post-injection,6.11 % ID/g
same,Biodistribution Spleen,[1]; 1 h post-injection,0.29 % ID/g
same,Biodistribution Stomach,[1]; 1 h post-injection,12.20 % ID/g
same,Biodistribution Tumor,[1]; 1 h post-injection,26.91 % ID/g
same,Tumor/Blood ratio,[1]; 1 h post-injection,47.9
same,Tumor/Kidney ratio,[1]; 1 h post-injection,0.6
same,Tumor/Muscle ratio,[1]; 1 h post-injection,18.8
same,Biodistribution Bladder,[1]; 4 h post-injection,6.60 % ID/g
same,Biodistribution Blood,[1]; 4 h post-injection,0.18 % ID/g
same,Biodistribution Brain,[1]; 4 h post-injection,0.33 % ID/g
same,Biodistribution Fat,[1]; 4 h post-injection,0.56 % ID/g
same,Biodistribution Heart,[1]; 4 h post-injection,1.52 % ID/g
same,Biodistribution Kidney,[1]; 4 h post-injection,19.17 % ID/g
same,Biodistribution Liver,[1]; 4 h post-injection,1.79 % ID/g
same,Biodistribution Lung,[1]; 4 h post-injection,10.35 % ID/g
same,Biodistribution Muscle,[1]; 4 h post-injection,0.65 % ID/g
same,Biodistribution Pancreas,[1]; 4 h post-injection,0.99 % ID/g
same,Biodistribution Small intestine,[1]; 4 h post-injection,2.64 % ID/g
same,Biodistribution Spleen,[1]; 4 h post-injection,0.15 % ID/g
same,Biodistribution Stomach,[1]; 4 h post-injection,6.06 % ID/g
same,Biodistribution Tumor,[1]; 4 h post-injection,26.28 % ID/g
same,Tumor/Blood ratio,[1]; 4 h post-injection,150.3
same,Tumor/Kidney ratio,[1]; 4 h post-injection,1.4
same,Tumor/Muscle ratio,[1]; 4 h post-injection,43.7
same,Biodistribution Bladder,[1]; 8 h post-injection,6.00 % ID/g
same,Biodistribution Blood,[1]; 8 h post-injection,0.16 % ID/g
same,Biodistribution Brain,[1]; 8 h post-injection,0.44 % ID/g
same,Biodistribution Fat,[1]; 8 h post-injection,0.46 % ID/g
same,Biodistribution Heart,[1]; 8 h post-injection,1.49 % ID/g
same,Biodistribution Kidney,[1]; 8 h post-injection,18.99 % ID/g
same,Biodistribution Liver,[1]; 8 h post-injection,1.87 % ID/g
same,Biodistribution Lung,[1]; 8 h post-injection,8.87 % ID/g
same,Biodistribution Muscle,[1]; 8 h post-injection,0.47 % ID/g
same,Biodistribution Pancreas,[1]; 8 h post-injection,1.03 % ID/g
same,Biodistribution Small intestine,[1]; 8 h post-injection,3.67 % ID/g
same,Biodistribution Spleen,[1]; 8 h post-injection,0.29 % ID/g
same,Biodistribution Stomach,[1]; 8 h post-injection,6.15 % ID/g
same,Biodistribution Tumor,[1]; 8 h post-injection,27.48 % ID/g
same,Tumor/Blood ratio,[1]; 8 h post-injection,178.6
same,Tumor/Kidney ratio,[1]; 8 h post-injection,1.5
same,Tumor/Muscle ratio,[1]; 8 h post-injection,65.0
same,Biodistribution Bladder,[1]; 24 h + block (200 nmole of 8),0.73 % ID/g
same,Biodistribution Blood,[1]; 24 h + block (200 nmole of 8),0.04 % ID/g
same,Biodistribution Brain,[1]; 24 h + block (200 nmole of 8),0.04 % ID/g
same,Biodistribution Fat,[1]; 24 h + block (200 nmole of 8),0.03 % ID/g
same,Biodistribution Heart,[1]; 24 h + block (200 nmole of 8),0.08 % ID/g
same,Biodistribution Kidney,[1]; 24 h + block (200 nmole of 8),1.54 % ID/g
same,Biodistribution Liver,[1]; 24 h + block (200 nmole of 8),0.46 % ID/g
same,Biodistribution Lung,[1]; 24 h + block (200 nmole of 8),0.73 % ID/g
same,Biodistribution Muscle,[1]; 24 h + block (200 nmole of 8),0.03 % ID/g
same,Biodistribution Pancreas,[1]; 24 h + block (200 nmole of 8),0.05 % ID/g
same,Biodistribution Small intestine,[1]; 24 h + block (200 nmole of 8),0.18 % ID/g
same,Biodistribution Spleen,[1]; 24 h + block (200 nmole of 8),0.38 % ID/g
same,Biodistribution Stomach,[1]; 24 h + block (200 nmole of 8),0.21 % ID/g
same,Biodistribution Tumor,[1]; 24 h + block (200 nmole of 8),1.70 % ID/g
same,Tumor/Blood ratio,[1]; 24 h + block (200 nmole of 8),42.0
same,Tumor/Kidney ratio,[1]; 24 h + block (200 nmole of 8),1.4
same,Tumor/Muscle ratio,[1]; 24 h + block (200 nmole of 8),58.6
same,Biodistribution Bladder,[1]; 24 h post-injection,1.29 % ID/g
same,Biodistribution Blood,[1]; 24 h post-injection,0.02 % ID/g
same,Biodistribution Brain,[1]; 24 h post-injection,0.28 % ID/g
same,Biodistribution Fat,[1]; 24 h post-injection,0.05 % ID/g
same,Biodistribution Heart,[1]; 24 h post-injection,0.28 % ID/g
same,Biodistribution Kidney,[1]; 24 h post-injection,3.11 % ID/g
same,Biodistribution Liver,[1]; 24 h post-injection,0.47 % ID/g
same,Biodistribution Lung,[1]; 24 h post-injection,1.48 % ID/g
same,Biodistribution Muscle,[1]; 24 h post-injection,0.10 % ID/g
same,Biodistribution Pancreas,[1]; 24 h post-injection,0.16 % ID/g
same,Biodistribution Small intestine,[1]; 24 h post-injection,0.96 % ID/g
same,Biodistribution Spleen,[1]; 24 h post-injection,0.20 % ID/g
same,Biodistribution Stomach,[1]; 24 h post-injection,1.02 % ID/g
same,Biodistribution Tumor,[1]; 24 h post-injection,12.51 % ID/g
same,Biodistribution Bladder,[1]; 48 h + block (200 nmole of 8),0.28 % ID/g
same,Biodistribution Blood,[1]; 48 h + block (200 nmole of 8),0.04 % ID/g
same,Biodistribution Brain,[1]; 48 h + block (200 nmole of 8),0.02 % ID/g
same,Biodistribution Fat,[1]; 48 h + block (200 nmole of 8),0.02 % ID/g
same,Biodistribution Heart,[1]; 48 h + block (200 nmole of 8),0.04 % ID/g
same,Biodistribution Kidney,[1]; 48 h + block (200 nmole of 8),0.39 % ID/g
same,Biodistribution Liver,[1]; 48 h + block (200 nmole of 8),0.23 % ID/g
same,Biodistribution Lung,[1]; 48 h + block (200 nmole of 8),0.18 % ID/g
same,Biodistribution Muscle,[1]; 48 h + block (200 nmole of 8),0.01 % ID/g
same,Biodistribution Pancreas,[1]; 48 h + block (200 nmole of 8),0.02 % ID/g
same,Biodistribution Small intestine,[1]; 48 h + block (200 nmole of 8),0.05 % ID/g
same,Biodistribution Spleen,[1]; 48 h + block (200 nmole of 8),0.15 % ID/g
same,Biodistribution Stomach,[1]; 48 h + block (200 nmole of 8),0.09 % ID/g
same,Biodistribution Tumor,[1]; 48 h + block (200 nmole of 8),0.65 % ID/g
same,Tumor/Blood ratio,[1]; 48 h + block (200 nmole of 8),42.7
same,Tumor/Kidney ratio,[1]; 48 h + block (200 nmole of 8),1.7
same,Tumor/Muscle ratio,[1]; 48 h + block (200 nmole of 8),62.5
same,Biodistribution Bladder,[1]; 48 h post-injection,0.20 % ID/g
same,Biodistribution Blood,[1]; 48 h post-injection,0.04 % ID/g
same,Biodistribution Brain,[1]; 48 h post-injection,0.17 % ID/g
same,Biodistribution Fat,[1]; 48 h post-injection,0.03 % ID/g
same,Biodistribution Heart,[1]; 48 h post-injection,0.12 % ID/g
same,Biodistribution Kidney,[1]; 48 h post-injection,0.76 % ID/g
same,Biodistribution Liver,[1]; 48 h post-injection,0.19 % ID/g
same,Biodistribution Lung,[1]; 48 h post-injection,0.90 % ID/g
same,Biodistribution Muscle,[1]; 48 h post-injection,0.04 % ID/g
same,Biodistribution Pancreas,[1]; 48 h post-injection,0.06 % ID/g
same,Biodistribution Small intestine,[1]; 48 h post-injection,0.20 % ID/g
same,Biodistribution Spleen,[1]; 48 h post-injection,0.13 % ID/g
same,Biodistribution Stomach,[1]; 48 h post-injection,0.35 % ID/g
same,Biodistribution Tumor,[1]; 48 h post-injection,5.82 % ID/g
same,Tumor/Blood ratio,[1]; 48 h post-injection,200.2
same,Tumor/Kidney ratio,[1]; 48 h post-injection,7.1
same,Tumor/Muscle ratio,[1]; 48 h post-injection,141.5
